Assay results taken from patent US20240100023A1, “Compositions and Methods For Treating Spinal Cord Injuries” (priority 2020, published 2024).

Legend:
hippocampal slices = settings: male, Sprague-Dawley, rat
Swiss Webster mice = assay: PTZ proconvulsant test; format: in vivo, Mouse; settings: 30 mg/kg or less p.o., 30 minutes before PTZ infusion
Procedure: Follow on studies of CX717 and 1739 are continuing, employing additional well-known models for SCI drug efficacy, coupled with a variety of ongoing safety studies. Preliminary safety studies already completed have included a range of toxicity studies focusing on critical convulsant risks widely observed for previously-studied ampakines. Using the well-known PTZ Proconvulsant test, non-GLP safety studies were conducted to examine proconvulsant activity of CX717. Swiss Webster mice (n=12/group) were dosed with CX717 (3, 10 or 30 mg/kg p.o.), vehicle (0.5% methocel p.o.) or a positive control, CGS8216 (10 mg/kg in 70% PEG300: 30% water i.p.). Thirty minutes later, the GABA-A antagonist, pentylenetetrazol (PTZ) was infused in the tail vein until tonic seizures were observed. The time at which the first clonic and tonic seizure was observed was noted and used to determine the dose of PTZ necessary to induce both clonic and tonic seizure.

Rat (Wistar) = assay: Novel object recognition memory; format: in vivo; settings: for Minimum Effective Dose, novel object recognition memory: Rat (Wistar), IP
Procedure: Additional Novel Object Recognition behavioral model studies were conducted to further elucidate the SCI recovery activities of CX717 and CX1739. Rats were habituated to a test box for two 5-minute sessions on consecutive days. Each test session consisted of two phases: in the first phase (“sample period”), two identical objects (A1 and A2) were placed in the far corners of the box, and the rats were allowed to explore the objects. After a 24 hour delay, rats were re-introduced to the arena (“test period”) now containing a third identical copy of the familiar object (A3) and a new object (B), placed in the same locations as in the first phase, and the total time spent exploring each of the objects was determined over a 3-min duration. For CX717 drug treatment, rats were dosed 30 min prior to each sample session with either 0.1, 0.3, 1.0 mg/kg CX717 (p.o.); vehicle (0.5% methylcellulose, p.o.) or 0.9 mg/kg Aricept (E2020, i.p.). The exploration times for the full 3-min were calculated and expressed as the discrimination index, d1, defined as the absolute difference in time spent exploring the novel object minus the familiar object.
For CX1739 Male Wistar rats were assessed for cognitive ability in a test apparatus comprising an open-field arena placed in a sound-attenuated room under dimmed lighting. Rat exploration and activity were captured by a digital camera, and viewed on a monitor in an adjoining area. Following a 5-minute habituation period, each animal was placed in the test arena in the presence of two identical objects (plastic shapes) and the time spent actively exploring the objects during a 5-minute test period (T1) was recorded. After 24 hours, each rat was again placed in the test arena for 5 minutes (T2) in the presence of one familiar object and one novel object, and the time spent exploring both objects was recorded. The Recognition Index was calculated as the percentage of total exploration time spent exploring the novel object during the retention session (T2), which provides the primary measure of cognitive function in this assay.
The Novel object recognition (NOR) paradigm is a rodent model of recognition learning memory retrieval and takes advantage of the spontaneous behavior of rodents to investigate a novel object compared with a familiar object. NOR has been employed extensively to indicate cognition-enhancing properties of drug candidates, predictive of therapeutic efficacy of positively-assaying drugs for reducing SCI symptoms in humans.

Rat (Lister) = assay: 5 Choice serial reaction time task; format: in vivo; settings: IP
Description: Another useful animal model for evaluating ampakine activity is the Five Choice Serial Reaction Time Task in Rats. This assay requires rats to provide a single nose poke in response to a light stimulus presented in one of five locations within a 9-hole chamber. With a correct response a reward is delivered that the rat collects from the food magazine at the rear of the chamber. The withdrawal of its head from the food magazine initiates a short inter-trial interval followed by the presentation of the next randomly presented stimulus. An incorrect response results in a time out period (non-reinforcement) followed by the initiation of a new trial. Groups of 12 rats were used in this study, and all rats received all treatments using a randomized sequence. For evaluation using this model, CX1739 was selected as the exemplary low impact ampakine, administered at doses of 3 and 10 mg/kg i.p. 20 min prior to the start of the study.

Row | Structure (SMILES) | Concentration at which seizure activity is seen in hippocampal slices (hippocampal slices) [µM] | Dose of PTZ required to elicit a seizure (proconvulsant activity) (Swiss Webster mice) | d1 scores (discrimination index) compared to vehicle (Rat (Wistar); 0.3 mg/kg, 24 hour delay) | Minimum Effective Dose, novel object recognition memory (Rat (Wistar)) [mg/kg] | Minimum Effective Dose, 5 choice serial reaction time task (Rat (Lister)) [mg/kg] | Preference for novel object exploration compared with positive control (Rat (Wistar); 0.03 mg/kg)
1 | O=C(c1ccc2nonc2c1)N1CCOCC1 [CX717, 1-(benzofurazan-5-ylcarbonyl)morpholine] | > 600 | did not decrease the dose of PTZ required to elicit a seizure | significant increase | 0.3 |  | 
2 | CN(C(=O)c1ccc2nonc2c1)C1CCOCC1 [CX1739, N-Methyl-N-tetrahydro-2H-pyran-4-yl-[2,1,3]-benzoxadiazole-5-carboxamide] |  |  |  | 0.03 | 3 | comparable to that of 3 mg/kg galantamine
